Results taken from patent US8686050B2, “Diglycidic ether derivative therapeutics and methods for their use” (British Columbia Cancer Agency Branch, priority 2008, dated 2014).
“Also recorded” adds a separate entry of the source. Where a name gives a salt, the structure may show the parent alone.

Assays:
[1] = system: PC3 xenografts; test: PC3 subcutaneous xenografts in non-castrated mice; type: in vivo, NOD-SCID male mice; conditions: 20 mg/kg body weight every 5 days, listed as PNG01-185-017-9-2, 20 mg/kg
Method: Six to eight-week old male athymic SCID mice were inoculated subcutaneously in the flank region via a 27-gauge needle with a 150 μl suspension of LNCaP or PC3 human prostate cancer cells (1×10^6 cells). The inoculations took place while the animal was under isofluorane anaesthesia. The tumor take rate is approximately 75%. Mice bearing tumors of 100 mm^3 were randomly assigned to treatment groups. Castration was performed as described below. Tumor volume (formula: L×W×H×0.5236) was measured in mice bearing LNCaP subcutaneous tumors that became palpable or visible and at least 40 mm^3. The animals were monitored daily and tumors were measured every 5 days.

[2] = molecular target: T1, AR (Homo sapiens, UniProt P10275, T878A); test: AR protein in harvested LNCaP xenografts (IHC, western blot); type: in vivo, mice; parameters: LNCaP human prostate cancer cells express endogenous androgen receptor (AR); from tissue; host or cells: LNCaP xenografts harvested from castrated NOD-SCID mice; conditions: I.V. or I.T delivery
T1 sequence (P10275 1-920 T878A): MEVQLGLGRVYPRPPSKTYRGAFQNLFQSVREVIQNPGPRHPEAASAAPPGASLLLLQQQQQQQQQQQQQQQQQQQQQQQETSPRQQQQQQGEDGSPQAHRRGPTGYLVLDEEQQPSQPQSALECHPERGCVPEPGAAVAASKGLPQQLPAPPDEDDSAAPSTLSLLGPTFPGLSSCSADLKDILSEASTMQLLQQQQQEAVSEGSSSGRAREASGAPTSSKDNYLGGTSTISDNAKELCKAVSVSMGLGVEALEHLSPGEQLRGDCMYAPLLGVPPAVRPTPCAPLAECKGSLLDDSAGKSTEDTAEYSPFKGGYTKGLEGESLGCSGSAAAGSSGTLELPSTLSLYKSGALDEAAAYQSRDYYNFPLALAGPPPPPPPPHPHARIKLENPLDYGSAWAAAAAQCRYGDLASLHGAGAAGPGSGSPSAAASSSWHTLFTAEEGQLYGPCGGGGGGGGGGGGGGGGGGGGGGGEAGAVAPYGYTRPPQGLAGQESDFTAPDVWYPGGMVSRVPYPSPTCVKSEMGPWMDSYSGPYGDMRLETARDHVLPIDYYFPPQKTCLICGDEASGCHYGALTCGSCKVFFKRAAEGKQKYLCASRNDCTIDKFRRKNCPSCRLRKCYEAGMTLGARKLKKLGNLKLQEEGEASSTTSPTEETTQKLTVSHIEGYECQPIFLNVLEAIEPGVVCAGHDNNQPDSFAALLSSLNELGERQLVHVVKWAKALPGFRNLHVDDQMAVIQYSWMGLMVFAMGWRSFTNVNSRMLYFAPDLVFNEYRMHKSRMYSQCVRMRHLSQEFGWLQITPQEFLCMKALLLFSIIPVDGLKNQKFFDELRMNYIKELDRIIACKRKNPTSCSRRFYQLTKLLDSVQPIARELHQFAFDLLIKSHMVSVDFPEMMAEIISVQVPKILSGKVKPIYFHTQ
Method: Levels of cytokeratin 18 were measured as an indication of amount of epithelial cells in the xenograft samples.

[3] = molecular target: T2, AR interaction with the ARE on the PSA enhancer (Homo sapiens, UniProt P10275, T878A); test: ChIP of AR on the PSA enhancer ARE in LNCaP cells; type: cell-based; conditions: DHT 3 h or 16 h, 185-9-2 10 μg/ml
T2 construct: LNCaP cells express endogenous AR and secrete prostate-specific antigen (PSA); endogenous in cells; host or cells: LNCaP
T2 sequence (P10275 1-920 T878A): T1 sequence (P10275 1-920 T878A)

[4] = molecular target: T3, progesterone receptor (PR) (Homo sapiens, UniProt P06401); test: PRE-luciferase reporter, steroid receptor specificity; type: cell-based; conditions: LNCaP cells transfected with PR, steroid 10 nM; 185-9-2 5 μg/ml, bicalutamide 10 μM
T3 construct: Cells were co-transfected with expression plasmids for full-length hGR, PRβ and the relative reporter; expressed in transfected cells; host or cells: LNCaP
T3 sequence (P06401 1-933): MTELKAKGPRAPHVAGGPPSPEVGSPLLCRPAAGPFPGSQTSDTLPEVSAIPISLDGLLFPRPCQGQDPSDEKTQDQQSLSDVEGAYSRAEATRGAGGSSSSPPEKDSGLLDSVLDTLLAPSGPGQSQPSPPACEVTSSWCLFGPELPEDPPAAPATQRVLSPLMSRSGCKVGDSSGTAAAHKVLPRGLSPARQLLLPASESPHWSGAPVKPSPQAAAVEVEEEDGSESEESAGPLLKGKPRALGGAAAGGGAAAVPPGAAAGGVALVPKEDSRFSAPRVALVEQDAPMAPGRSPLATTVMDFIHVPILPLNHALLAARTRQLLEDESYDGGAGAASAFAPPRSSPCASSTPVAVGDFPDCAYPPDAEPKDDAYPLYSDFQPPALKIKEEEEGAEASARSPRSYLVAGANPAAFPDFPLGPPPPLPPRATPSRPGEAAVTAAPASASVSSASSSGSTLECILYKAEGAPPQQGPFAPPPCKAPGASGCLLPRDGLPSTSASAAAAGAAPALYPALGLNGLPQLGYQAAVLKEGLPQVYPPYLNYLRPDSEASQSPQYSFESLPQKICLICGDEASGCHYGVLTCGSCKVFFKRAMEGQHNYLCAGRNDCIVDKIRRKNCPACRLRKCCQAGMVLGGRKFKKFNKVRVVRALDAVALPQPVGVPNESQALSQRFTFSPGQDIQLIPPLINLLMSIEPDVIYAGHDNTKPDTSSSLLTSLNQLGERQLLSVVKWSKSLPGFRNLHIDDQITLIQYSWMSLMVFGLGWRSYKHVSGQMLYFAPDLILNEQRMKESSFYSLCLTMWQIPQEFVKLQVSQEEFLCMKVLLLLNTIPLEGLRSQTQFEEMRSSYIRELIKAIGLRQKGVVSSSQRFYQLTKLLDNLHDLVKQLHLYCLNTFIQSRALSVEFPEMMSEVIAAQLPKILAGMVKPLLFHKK
Method: Sequence similarities of amino acids in the AR with related human steroid receptors PR and glucocorticoid receptor (GR) are significant in some domains such as the DBD. The AR NTD shares less than 15% homology with the PR and GR, but these receptors interact with some of the same proteins (eg., SRC-1 and CBP). […] Cells were co-transfected with expression plasmids for full-length hGR, PRβ and the relative reporter (i.e., pGR-Luc or PRE-E1b-Luc reporters). Cells were then treated with ethanol vehicle, dexamethasone (GR), 4-pregnene-3,20 dione (progesterone) (PR) followed by measurement of luciferase activity. […] Some antiandrogens currently used in the clinic have progestational and glucocorticoidal activities. In adult males, the role of the PR activity is unclear.

## CC(C)(c1ccc(OCC(O)CO)cc1)c1ccc(OCC(O)CCl)cc1 (stereo not shown) [185-9-2, BADGE.HCL.H2O]
[1]
  PC3 xenograft tumor growth: had a small effect on PC3 tumor growth but did not reduce tumor burden; also recorded: did not reduce tumors but did slightly slow the growth
[2]
  levels of AR protein in xenografts: does not reduce levels of AR protein; also recorded: did not decrease levels of AR protein
[3]
  AR interaction with the ARE on the PSA enhancer in response to androgen (ChIP): inhibited AR interaction with the ARE
[4]
  PRE-luciferase activity in response to ligand: did NOT inhibit; also recorded: does NOT inhibit
